Earlier results, collected in paper PMC11901578, “Polymethoxyflavones and Bone Metabolism” (Nutrients, 2025).
Like-named read-outs stand apart in the source and are kept apart here.

Tests used:
[1] = tested on: Raw264.7; settings: RANKL +, cited from earlier work; for IC50: read-out: IC50, osteoclast differentiation in Raw264.7 cultures
[2] = tested on: osteoclast differentiation in co-cultures of osteoblasts and bone marrow cells; settings: cited from earlier work; for IC50: IL-1 +, read-out: IC50, osteoclast differentiation in co-culture system; for inhibitory effect on IL-1-induced osteoclast differentiation relative to nobiletin and tangeretin, respectively: TRAP-positive osteoclasts
[3] = tested on: IL-1β mRNA expression in the hippocampus; set-up: method as in PMID 25884208; settings: mice, subcutaneous 100 mg/kg; cited from earlier work
[4] = tested on: HL-60 cells; set-up: method as in PMID 23225422; settings: read-out: IC50, anti-proliferative effect on HL-60 cells; cited from earlier work
[5] = tested on: serum TNF-α levels; set-up: method as in PMID 18816060; settings: rats, intraperitoneal 100 mg/kg; cited from earlier work
[6] = tested on: bone resorption in mouse calvarial or alveolar bone organ cultures; settings: 30 μM, mouse calvarial or alveolar bone organ cultures; cited from earlier work
[7] = tested on: zebrafish embryos; set-up: method as in PMID 22707269; settings: 30 μM, cited from earlier work
[8] = tested on: human umbilical vein endothelial cells (HUVECs); set-up: method as in PMID 22707269; settings: read-out: IC50, anti-proliferative effect on HUVECs; cited from earlier work
[9] = tested on: DMM-OA mice; settings: DMM-OA mice, oral 50 mg/kg/day for 8 weeks; cited from earlier work
[10] = tested on: BTB and CNC homology 1 (BACH1); set-up: method as in PMID 38734708; settings: cited from earlier work
[11] = tested on: periodontal ligament cells; set-up: method as in PMID 38734708; settings: 2.5, 5, and 10 μM; cited from earlier work
[12] = tested on: rats with ligature-induced periodontitis; set-up: method as in PMID 38734708; settings: oral 5, 10, and 20 mg/kg/day for 3 weeks; cited from earlier work
[13] = tested on: human periodontal ligament cells (HPDLCs); settings: TNF-α, human periodontal ligament cells; cited from earlier work
[14] = tested on: bone marrow macrophage (BMM) cultures; settings: 2, 10, and 50 μM; cited from earlier work
[15] = tested on: osteoclast differentiation; set-up: method as in PMID 26044862; settings: 20 μM, compared to 20 μM laricitrin and 20 μM myricetin; cited from earlier work
[16] = tested on: osteoclast differentiation; set-up: method as in PMID 22850615; settings: 30 μM; cited from earlier work
[17] = tested on: osteoclast differentiation in co-culture system; settings: LPS +, 30 μM; cited from earlier work
[18] = tested on: alveolar bone loss in mice; settings: LPS +, cited from earlier work
[19] = tested on: CIA rats; set-up: method as in PMID 31344704; settings: daily oral administration for 14 days; cited from earlier work
[20] = tested on: rheumatoid synovial fibroblasts (RASFs); set-up: method as in doi:10.3329/bjp.v10i3.22865; settings: 50 and 100 μM; cited from earlier work

COc1cc(-c2cc(=O)c3c(OC)c(OC)c(OC)c(OC)c3o2)ccc1O [4′-Demethylnobiletin, 4′-Hydroxy-3′,5,6,7,8-Pentamethoxyflavone]
IC50 [1]: 1 µM
IC50 [2]: 13 µM
inhibitory effect on IL-1-induced osteoclast differentiation relative to nobiletin and tangeretin, respectively [2]: potent inhibitory effects

COc1c(OC)c(OC)c2c(=O)cc(-c3ccc(O)cc3)oc2c1OC [4′-Demethyltangeretin, 4′-Hydroxy-5,6,7,8-Tetramethoxyflavone]
IC50 [1]: 7 µM
IC50 [2]: 18 µM
inhibitory effect on IL-1-induced osteoclast differentiation relative to nobiletin and tangeretin, respectively [2]: potent inhibitory effects

COc1ccc(-c2oc3c(OC)c(OC)c(OC)c(OC)c3c(=O)c2OC)cc1OC [Heptamethoxyflavone, 3,3′,4′,5,6,7,8,-Heptamethoxyflavone]
IL-1β mRNA expression in the hippocampus [3]: downregulates
IC50 [4]: 63 µM
serum TNF-α levels [5]: reduced serum TNF-α levels
inhibition of LPS-induced bone resorption [6]: > 90%

COc1ccc([C@@H]2CC(=O)c3c(O)cc(O)cc3O2)cc1O [Hesperetin, reference compound]
anti-angiogenic effect on zebrafish embryos, inhibited ([7]; listed as hesperitin): ~30%
anti-angiogenic effect on zebrafish embryos, inhibited [7]: 30% inhibited [47]
IC50 [8]: > 100 µM

COc1ccc(-c2oc3c(OC)c(OC)c(OC)c(OC)c3c(=O)c2O)cc1OC [Natsudaidain, 3′,4′,5,6,7,8-Hexamethoxy-3-hydroxyflavone]
IC50 [4]: 5 µM

COc1ccc(-c2cc(=O)c3c(OC)c(OC)c(OC)cc3o2)cc1 [Scutellarein tetra-methylether]
IC50 [8]: > 100 µM

O=c1cc(-c2ccc(O)cc2)oc2cc(O)c(O)c(O)c12 [Scutellarein]
IC50 [8]: > 100 µM

COc1ccc(-c2cc(=O)c3c(OC)c(OC)c(OC)cc3o2)cc1OC [Sinensetin, 3′,4′,5,6,7-Pentamethoxyflavone]
disease progression [9]: protects against disease progression
binding to BACH1 [10]: directly binds
IC50 [4]: > 400 µM
anti-angiogenic effect on zebrafish embryos, inhibited ([7]; listed as sinensetin): approximately 95%
anti-angiogenic effect on zebrafish embryos, inhibited [7]: 95% inhibited [47]
oxidative stress and inflammation [11]: dose-dependently reduced
alveolar bone resorption [12]: suppressed alveolar bone resorption
IC50 [8]: 24 µM

COc1cc(-c2cc(=O)c3c(O)c(OC)c(O)c(OC)c3o2)ccc1O [Sudachitin, 4′,5,7-Trihydroxy-3′,6,8-trimethoxyflavone]
production of MMP-1 and MMP-3 [13]: reduced the production
RANKL-induced osteoclast differentiation [14]: dose-dependently suppressed

COc1cc(-c2oc3cc(O)cc(O)c3c(=O)c2O)cc(OC)c1O [Syringetin, 3,4′,5,7-Tetrahydroxy-3′,5′-dimethoxyflavone]
inhibitory effect on M-CSF-/RANKL-induced osteoclast differentiation [15]: strongest inhibitory effect

COc1ccc(-c2cc(=O)c3c(OC)c(OC)c(OC)c(OC)c3o2)cc1 [Tangeretin, 4′,5,6,7,8-Pentamethoxyflavone]
IC50 [4]: 32 µM
suppression of osteoclast differentiation induced by IL-1, LPS, or soluble RANKL (sRANKL) [16]: 70–90%
osteoclast differentiation in co-culture system, inhibited [17]: 94% inhibited [8]
alveolar bone loss in mice, restored ([18]; 30 μg/mouse): 0% restored [8]
alveolar bone loss in mice, restored ([18]; 100 μg/mouse): 2% restored [8]
alveolar bone loss in mice, restored ([18]; 500 μg/mouse): 4% restored [8]
osteoclast differentiation in Raw264.7 cultures, inhibited ([1]; 30 μM): 71% inhibited [8]
IC50 [1]: 16 µM
oxidative stress and inflammation [19]: reduced oxidative stress and inflammation
proliferation of rheumatoid synovial fibroblasts (RASFs) [20]: significantly inhibits
IC50 [2]: 18 µM
